In patent US20140206748A1, “COMPOSITIONS AND METHODS RELATED TO PROSTATE CANCER” (Regents of the University of Minnesota, priority 2013, published 2014):
Like-named read-outs stand apart in the source and are kept apart here.

Legend:
androgen receptor (AR) = assay: MMTV-Luc reporter assay in CWR-R1 early and CWR-R1 late cells; assay type: cell-based, human; settings: 1 nM mibolerone, 24 hours; CWR-R1 early vs CWR-R1 late cells
CWR-R1 cells = settings: castrate conditions; 10 μM bicalutamide or 1 μM enzalutamide
22Rv1 cells = assay: Growth of 22Rv1 cells under castrate conditions (crystal violet staining); assay type: cell-based, human; settings: CSS; 10 μM bicalutamide or 1 μM enzalutamide
[1] = test system: castration-resistant prostate cancer patients; settings: Phase III trials; cited from earlier work
LNCaP cells [2] = settings: 0.1 nM DHT to 100 nM DHT
LNCaP cells [3] = test system: LNCaP cells
Method: Normalized gene expression data was ranked using the Signal2Noise metric and GSEA was performed against 1000 random gene set permutations.

**Q.** For `C[C@@H]1CC2=CC(=O)CC[C@@H]2[C@H]2CC[C@@]3(C)[C@@H](CC[C@]3(C)O)[C@@H]21` [mibolerone], which “AR transactivation (MMTV-Luc) in response to androgen” value (androgen receptor (AR)) is on record?
**A.** Its value is “higher in CWR-R1 early cells than CWR-R1 late cells”.

**Q.** Which “androgen-independent growth of deletion-enriched CWR-R1 cells” value (CWR-R1 cells) does the source give for `CNC(=O)c1ccc(N2C(=S)N(c3ccc(C#N)c(C(F)(F)F)c3)C(=O)C2(C)C)cc1F` [enzalutamide] here?
**A.** Its value is “insensitive”.

**Q.** What about the “growth of 22Rv1 cells under castrate conditions” value (22Rv1 cells) of the same compound?
**A.** The value was “unaffected”.

**Q.** And the “increase of overall survival” value [1]?
**A.** The value was 4.8 months.

**Q.** What does the source list for `C[C@]12CCC(=O)C[C@@H]1CC[C@@H]1[C@@H]2CC[C@]2(C)[C@@H](O)CC[C@@H]12` [DHT, dihydrotestosterone]?
**A.** PSA expression (LNCaP cells [2]): increased concomitant with increasing androgen concentration; expression of M-phase genes UBE2C, CDCA5, ZWINT, and CCNA2 (LNCaP cells [2]): biphasic response; enrichment of the "full-length AR" signature (GSEA) (LNCaP cells [3]; 1 nM DHT and 100 nM DHT datasets): positive enrichment; enrichment of the "AR-V-specific" signature (GSEA) (LNCaP cells [3]; 1 nM DHT dataset (GSE26483)): positive enrichment; enrichment of the "AR-V-specific" signature (GSEA) (LNCaP cells [3]; 100 nM DHT dataset (GSE7868)): strong negative enrichment
